Key:
Format in all cases: ADME, organism-based
[1] = AUC in rat in presence of ritonavir; conditions: plasma
[2] = AUC (0 to infinity) in […] at […], po administered as single dose measured on day 1 by HPLC; set-up: route oral, time infinity; conditions: human, plasma
[3] = Tmax in […] at […], po administered as single dose measured on day 17 by HPLC in presence of 29 doses of […]; conditions: human, in vivo
[4] = Tmax in […] at […], po administered as single dose measured on day 3 by HPLC in presence of […]; conditions: human, in vivo
[5] = Oral bio availability in rat in presence of ritonavir; conditions: in vivo
[6] = AUC (0 to infinity) in […] at […], po administered as single dose measured on day 3 by HPLC in presence of […]; set-up: time infinity, route oral; conditions: human, plasma
[7] = Tmax in […] at […], po administered as single dose measured on day 1 by HPLC; set-up: route oral; conditions: human, in vivo
[8] = Cmax in rat in presence of ritonavir; conditions: in vivo
[9] = AUC (0 to infinity) in […] at […], po administered as single dose measured on day 17 by HPLC in presence of 29 doses of […]; set-up: route oral, time infinity; conditions: human, plasma
[10] = Apparent volume of distribution during terminal phase in […] at […], po administered as single dose measured on day 3 by HPLC in presence of […]; conditions: human, in vivo, read-out: Vz/F
[11] = Cmax in […] at […], po administered as single dose measured on day 3 by HPLC in presence of […]; set-up: route oral; conditions: human, in vivo
[12] = Cmax in […] at […], po administered as single dose measured on day 1 by HPLC; set-up: route oral; conditions: human, in vivo
[13] = Apparent volume of distribution during terminal phase in […] at […], po administered as single dose measured on day 17 by HPLC in presence of 29 doses of […]; conditions: human, in vivo, read-out: Vz/F
[14] = Apparent volume of distribution during terminal phase in […] at […], po administered as single dose measured on day 1 by HPLC; set-up: route oral; conditions: human, in vivo, read-out: Vz/F
[15] = Cmax in […] at […], po administered as single dose measured on day 17 by HPLC in presence of 29 doses of […]; set-up: route oral; conditions: human, in vivo

NCCCCN(Cc1nc2ccccc2[nH]1)[C@H]1CCCc2cccnc21 [MAVORIXAFOR]
AUC [1]: 0.058 µg·h/mL | AUC(0-inf) [2]: 0.934 µg·h/mL | Tmax [3]: 1 h | Tmax [4]: 2 h | bioavailability [5]: 66% | AUC(0-inf) [6]: 1.64 µg·h/mL | Tmax [7]: 3 h | Cmax [8]: 0.158 µg/mL | AUC(0-inf) [9]: 1.21 µg·h/mL | Vd/F [10]: 3450 L | Cmax [11]: 0.362 µg/mL | Cmax [12]: 0.256 µg/mL | Vd/F [13]: 3930 L | Vd/F [14]: 4200 L | Cmax [15]: 0.333 µg/mL

Source: ChEMBL document CHEMBL1255318, “Effect of low-dose ritonavir on the pharmacokinetics of the CXCR4 antagonist AMD070 in healthy volunteers” (Antimicrob Agents Chemother, 2008)
